Measured values as given in article PMC7802075 (ACS Infectious Diseases, 2020).
Where a SMILES comes first, the peptide text is derived from it. The star is where a group is joined. For = O=C*

These compounds were tested against T1, LmjIPCS (inositol phosphorylceramide synthase from L. major) (Leishmania major, UniProt E9AFX2) (assay: biochemical). Details: not given.
T1 sequence (E9AFX2 1-338): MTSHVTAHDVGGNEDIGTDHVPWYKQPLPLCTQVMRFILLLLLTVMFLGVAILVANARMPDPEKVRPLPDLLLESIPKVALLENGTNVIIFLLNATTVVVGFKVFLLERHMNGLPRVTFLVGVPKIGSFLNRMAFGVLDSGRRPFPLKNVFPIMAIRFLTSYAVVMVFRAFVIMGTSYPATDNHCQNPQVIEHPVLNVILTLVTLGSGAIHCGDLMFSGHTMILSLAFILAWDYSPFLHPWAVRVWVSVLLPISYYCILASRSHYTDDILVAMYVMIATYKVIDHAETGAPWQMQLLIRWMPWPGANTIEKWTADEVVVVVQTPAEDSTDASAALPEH
Type: biochemical
Set-up: inhibition: dose or concentration left out as unconfirmed

| Compound | 20mM inhibition LmjIPCS |
| --- | --- |
| Oc1c(Cl)cc(Cl)c2cccnc12 [CHLOROXINE] | 37% |
| Nc1c(Br)cc(Br)cc1CN[C@H]1CC[C@H](O)CC1 [AMBROXOL] | 53% |
| CN(C)CCC(c1ccc(Cl)cc1)c1ccccn1 (centres unmarked) [CHLORPHENIRAMINE] | 68% |
| NCCCCCC(=O)O [6-AMINOCAPROIC ACID] | 43% |
| CC(C[N+](C)(C)C)OC(N)=O (centres unmarked) [BETHANECHOL] | 53% |
| Nc1ncnc2c1ncn2[C@@H]1O[C@H](CO)[C@@H](O)[C@H]1O [ADENOSINE] | 41% |
| NS(=O)(=O)c1cc2c(cc1C(F)(F)F)NC(Cc1ccccc1)NS2(=O)=O (centres unmarked) [BENDROFUMETHIAZIDE] | 63% |
| O=C1C=CC(=O)c2c(O)cccc21 [JUGLONE] | 48% |
| CCOc1nc2cccc(C(=O)OC(C)OC(=O)OC3CCCCC3)c2n1Cc1ccc(-c2ccccc2-c2nn[nH]n2)cc1 (centres unmarked) [CANDESARTAN CILEXTIL] | 11% |
| Cc1ccccc1N1C(=O)c2cc(S(N)(=O)=O)c(Cl)cc2NC1C (centres unmarked) [METOLAZONE] | 50% |
| COc1cc2nc(N(C)CCCNC(=O)C3CCCO3)nc(N)c2cc1OC (centres unmarked) [ALFLUZOCIN] | 8% |
| CC[C@H](C)C(=O)O[C@H]1C[C@@H](C)C=C2C=C[C@H](C)[C@H](CC[C@@H]3C[C@@H](O)CC(=O)O3)[C@H]21 [LOVASTATIN] | 41% |
| CN1CCCN=C1COC(=O)C(O)(c1ccccc1)C1CCCCC1 (centres unmarked) [OXYPHENCYCLIMINE] | 53% |
| N=C(NCCC[C@H](N)C(=O)O)N[N+](=O)[O-] [N (g)-NITRO-L-ARGININE] | 1.68% |
| CCCNCC(O)COc1ccccc1C(=O)CCc1ccccc1 (centres unmarked) [PROPAFENONE] | 61% |
| O=C(O)C(O)C(O)C(=O)O.OCc1cccnc1 (centres unmarked) [NICOTINYL] | 6% |
| Cc1ccc(/C(=C\CN2CCCC2)c2ccccn2)cc1 [TRIPROLIDINE] | 42% |

Same assay, conditions: NINDS set screen, single concentration printed as 20mM

| Compound | 20mM inhibition LmjIPCS |
| --- | --- |
| CC[C@@H](C(=O)[C@@H](C)[C@@H](O)[C@H](C)CCc1ccc(C)c(O)c1C(=O)[O-])[C@H]1O[C@](CC)([C@H]2CC[C@](O)(CC)[C@H](C)O2)C[C@@H]1C.[Na+] [LASALOCID SODIUM] | 41% |
| CN1CCCC(n2nc(Cc3ccc(Cl)cc3)c3ccccc3c2=O)CC1 (centres unmarked) [AZELASTINE] | 56% |
| O=C(O)CCCC[C@@H]1CCSS1 (racemic) [THIOCTIC ACID] | 55% |
| c1ccc2[nH]c(-c3cscn3)nc2c1 [THIABENDAZOLE] | 41% |
| CSc1ccc2c(c1)C(N1CCN(C)CC1)Cc1ccccc1S2 (centres unmarked) [METHIOTHEPIN] | 55% |
| CN(C)c1ccc(C(=C2C=CC(=[N+](C)C)C=C2)c2ccc(N(C)C)cc2)cc1 [GENTIAN VIOLET] | 64% |

Same assay, conditions: NINDS set screen; read-out: inhibition LmjIPCS

| Compound | inhibition |
| --- | --- |
| CS(=O)(=O)c1ccc(C2=C(c3ccccc3)C(=O)OC2)cc1 [ROFECOXIB] | -2% |
| CNC[C@H](O)c1cccc(O)c1 [PHENYLEPHRINE] | 25% |
| CCCCN(CCCC)CCCOC(=O)c1ccc(N)cc1 [BUTACAINE] | 19% |
| CO/N=C(\C(=O)N[C@@H]1C(=O)N2C(C(=O)O)=C(COC(N)=O)CS[C@H]12)c1ccco1 [CEFUROXIME] | 16% |
| CN1CC(=O)NC1=N [CREATININE] | 15% |
| O=c1oc2c(O)c(O)cc3c(=O)oc4c(O)c(O)cc1c4c23 [ELLAGIC ACID] | 22% |
| CC(=O)OCC(COC(C)=O)OC(C)=O [TRIACETIN] | 29% |
| CC(C)c1nc(N(C)S(C)(=O)=O)nc(-c2ccc(F)cc2)c1/C=C/[C@@H](O)C[C@@H](O)CC(=O)O [ROSUVASTATIN] | 12% |

Same assay, conditions: read-out: 20mM inhibition LmjIPCS

| Compound | inhibition at 20000 µM |
| --- | --- |
| CN(C)[C@@H]1C(O)=C(C(N)=O)C(=O)[C@@]2(O)C(O)=C3C(=O)c4c(O)ccc(Cl)c4[C@@H](O)[C@H]3C[C@@H]12 [DEMECLOCYCLINE] | -2% |
| CCN(CC)C(=S)SSC(=S)N(CC)CC | 16% |
| O=C(Cn1ccnc1[N+](=O)[O-])NCCO [ETANIDAZOLE] | 3.58% |
| C[C@H](CS)C(=O)N1CCC[C@H]1C(=O)O [CAPTOPRIL] | 1.19% |
| CO[C@@]1(NC(=O)C(C(=O)O)c2ccc(O)cc2)C(=O)N2C(C(=O)O)=C(CSc3nnnn3C)CO[C@@H]21 (some centres unmarked) [MOXALACTAM] | 10% |
| OC[C@H]1O[C@@H](O[C@@H]2[C@@H](CO)OC(O)(CO)[C@H]2O)[C@H](O)[C@@H](O)[C@H]1O (mixture of isomers) [LACTULOSE] | 26% |
| COc1cc(C2Oc3cc([C@H]4Oc5cc(O)cc(O)c5C(=O)[C@@H]4O)ccc3OC2CO)ccc1O (some centres unmarked) [SILIBININ] | 2.14% |
| C=CCc1ccc2c(c1)OCO2 [SAFROLE] | 1.28% |
| NCCc1c[nH]c2ccccc12 [TRYPTAMINE] | 27% |
| COc1ccc(C(C)=O)c(O)c1 [PAEONOL] | 9% |
| CN[C@@H]1[C@@H](O[C@H]2O[C@H](CO)[C@@H](N)[C@H](O)[C@H]2O)OC2C[C@@H](N)[C@@H](O[C@H]3[C@H](O)[C@@H](O)[C@H](N)C[C@@H]3N)OC2[C@@H]1O (some centres unmarked) [APRAMYCIN] | 0.0509% |
| COc1ccc2c3c1O[C@H]1C[C@@H](O)C=C[C@@]31CCN(C)C2 [GALANTHAMINE] | 2.62% |
| Cc1ccc(Cl)c(Nc2ccccc2C(=O)O)c1Cl [MECLOFENAMATE] | 6% |
| Cc1cc(NC(=O)C2=C(O)c3ccccc3S(=O)(=O)N2C)no1 [ISOXICAM] | -3% |
| C=C(C)[C@@H]1CC[C@]2(C(=O)O)CC[C@]3(C)[C@H](CC[C@@H]4[C@@]5(C)CC[C@H](O)C(C)(C)[C@@H]5CC[C@]43C)[C@@H]12 [BETULINIC ACID] | 21% |
| CC(=O)OCC(=O)[C@@]1(O)CC[C@H]2[C@@H]3CCC4=CC(=O)CC[C@]4(C)[C@@]3(F)[C@@H](O)C[C@@]21C [FLUDROCORTISONE ACETATE] | 4.65% |
| c1ccc([C@H]2CN3CCSC3=N2)cc1 [LEVAMISOLE] | 2.52% |
| C=C(C)[C@@H]1CC=C(CO)CC1 [PERILLYL ALCOHOL] | 11% |
| O=C(O)CN(CC(=O)O)Cc1cc2c(cc1O)Oc1cc(O)c(CN(CC(=O)O)CC(=O)O)cc1C21OC(=O)c2ccccc21 [CALCEIN] | 0% |
| NS(=O)(=O)c1cc2c(cc1C(F)(F)F)NCNS2(=O)=O [HYDROFLUMETHIAZIDE] | 9% |
| C[C@@H](CO)NC(=O)[C@@H]1C=C2c3cccc4[nH]cc(c34)C[C@H]2N(C)C1 [ERGONOVINE] | 6.33% |
| C#C[C@]1(O)CC[C@H]2[C@@H]3CCC4=CC(=O)CC[C@]4(C)[C@H]3CC[C@@]21C [ETHISTERONE] | 2.43% |
| Nc1nc(N)c2nc(CNc3ccc(C(=O)N[C@@H](CCC(=O)O)C(=O)O)cc3)cnc2n1 [AMINOPTERIN] | 0.247% |
| S=C=NCc1ccccc1 [BENZYL ISOTHIOCYANATE] | 6% |

Same assay, conditions: read-out: inhibition LmjIPCS

| Compound | inhibition |
| --- | --- |
| COc1cc([C@@H]2c3cc4c(cc3[C@@H](O[C@@H]3O[C@@H]5CO[C@@H](c6cccs6)O[C@H]5[C@H](O)[C@H]3O)[C@H]3COC(=O)[C@H]23)OCO4)cc(OC)c1O [TENIPOSIDE] | 23% |
| Cc1cc(C)nc(NS(=O)(=O)c2ccc(N)cc2)n1 [SULFAMETHAZINE] | 1.49% |
| CNC(C)C1CCC(N)C(OC2C(N)CC(N)C(OC3OCC(C)(O)C(NC)C3O)C2O)O1 (centres unmarked) [GENTAMICIN] | -1% |
| O=C(C1CCCCC1)N1CC(=O)N2CCc3ccccc3C2C1 (centres unmarked) [PRAZIQUANTEL] | -3.78% |
| CCCCNC(=O)NS(=O)(=O)c1ccc(C)cc1 [TOLBUTAMIDE] | 30% |
| Cc1ncc([N+](=O)[O-])n1CCO [METRONIDAZOLE] | 7% |
| CCn1cc(C(=O)O)c(=O)c2cc(F)c(N3CCNCC3)cc21 [NORFLOXACIN] | 17% |
| O=c1cc(-c2ccccc2)oc2cc(O)c(O)c(O)c12 [BAICALEIN] | 32% |
| C=C1CC[C@H](O)C/C1=C/C=C1\CCC[C@]2(C)[C@@H]([C@H](C)/C=C/[C@H](C)C(C)C)CC[C@@H]12 [ERGOCALCIFEROL] | -1.77% |
| CO[C@H]1C[C@H](O[C@H]2[C@H](C)[C@@H](O[C@@H]3O[C@H](C)C[C@H](N(C)C)[C@H]3OC(C)=O)[C@@H](C)C[C@@]3(CO3)C(=O)[C@H](C)[C@@H](OC(C)=O)[C@@H](C)[C@@H](C)OC(=O)[C@@H]2C)O[C@@H](C)[C@@H]1OC(C)=O [TROLEANDOMYCIN] | 18% |
| C[C@@]12C[C@@]3(O)O[C@@H](O1)[C@]1(COC(=O)c4ccccc4)[C@H]3C[C@@]12O[C@@H]1O[C@H](CO)[C@@H](O)[C@H](O)[C@H]1O [PEONIFLORIN] | 12% |
| CCCn1c(=O)c2[nH]c(C3CCCC3)nc2n(CCC)c1=O | 2.66% |
| CC[C@H](C)C(=O)O[C@H]1C[C@H](O)C=C2C=C[C@H](C)[C@H](CC[C@@H](O)C[C@@H](O)CC(=O)O)[C@H]21 [PRAVASTATIN] | 28% |
| CCN(CC)CCNC(=O)c1ccc(N)cc1 [PROCAINAMIDE] | 19% |
| O=c1cc(CO)occ1O [KOJIC ACID] | 11% |

Same assay, conditions: screening of NINDS set, sheet Screen 1; read-out: inhibition LmjIPCS

| Compound | inhibition |
| --- | --- |
| N[C@H](Cc1ccccc1)C(=O)O [D-PHENYLALANINE] | 9% |
| Cc1c(Cl)cccc1Nc1ccccc1C(=O)O [TOLFENAMIC ACID] | 4.68% |

Same assay, conditions: single concentration 20mM as printed; screening of NINDS set, sheet Screen 1

| Compound | 20mM inhibition LmjIPCS |
| --- | --- |
| NC1(C(=O)O)CC1 [AMINOCYCLOPROPANECARBOXYLIC ACID] | 9% |
| CSCC[C@H](NC=O)C(=O)N[C@@H](Cc1ccccc1)C(=O)O [N-FORMYLMETHIONYLPHENYLALANINE] (For-Met-Phe-OH) | 5.35% |
